Results as given in US8648045B2, “VDAC1 compositions and methods of use thereof for regulating apoptosis” (Ben Gurion University of the Negev Research and Development …, priority 2005, dated 2014).
Ends that are not written are not given here.

What was measured:
[1] = test system: U937, MOLT4 and MEC-1 cells; assay: Cancer cell death by L- or D-amino acid peptide; type: cell-based, human; conditions: average of two experiments
Source text: The results are average of two experiments

Panc-1 = type: cell-based, human
Procedure: (§1) To determine apoptosis, cells were subjected to staining with 100 μg/ml acridine orange (AcOr) and 100 μg/ml ethidium bromide (EtBr) in PBS. Cells were centrifuged at 1500×g for 5 min at room temperature and resuspended in 25 μl complete medium, to which 2 μl of an AcOr/EtBr solution were added. The cells were then visualized by fluorescence microscopy (Olympus IX51) and images were recorded with an Olympus DP70 camera, using a SWB filter. In each independent experiment, in which early and late apoptotic cells were counted, approximately 250 cells were counted for each treatment.
(§2) The effect of the peptides N-ANTP (having the amino acid sequence of SEQ ID NO:73) and ANTP-LP4-trp (having the amino acid sequence of SEQ ID NO:15) on apoptotoc cell death was examined with cancer cells of various trypes. Table 6 below summarizes the cell line examined and concentration of each pepetide that gave 50% apoptotic cell death (IC50, μM).
(§3) All cells were grown in DMEM accept PC3, D-U145, Molt-4, Jurkat, Mec-1, U937 grown in RPMI medium and HUH7 grown in F12/DMEM medium.

MOLT-4 = type: cell-based, human
Procedure: as §1, §2, §3

T-Rex = type: cell-based, human
Procedure: as §1, §2, §3

U937 = type: cell-based, human
Procedure: as §1, §2, §3

Mec-1 = type: cell-based, human
Procedure: as §1, §2, §3

U87 = type: cell-based, human
Procedure: as §1, §2, §3

SKOV-3 = type: cell-based
Procedure: as §1, §2, §3

Hep-G2 = type: cell-based
Procedure: as §1, §2, §3

A549 = type: cell-based
Procedure: as §1, §2, §3

T3M4 = type: cell-based
Procedure: as §1, §2, §3

JURKAT = type: cell-based
Procedure: as §1, §2, §3

HUH7 = type: cell-based
Procedure: as §1, §2, §3

K562 = type: cell-based
Procedure: as §1, §2, §3

A375 = type: cell-based
Procedure: as §1, §2, §3

H358 = type: cell-based
Procedure: as §1, §2, §3

MCF7 = type: cell-based
Procedure: as §1, §2, §3

THP-1 = type: cell-based
Procedure: as §1, §2, §3

MDA-MB-231 = type: cell-based
Procedure: as §1, §2, §3

AsPC1 = type: cell-based
Procedure: as §1, §2, §3

HeLa = test system: HeLa
Procedure: as §1
The effect of the peptides N-ANTP (having the amino acid sequence of SEQ ID NO:73) and ANTP-LP4-trp (having the amino acid sequence of SEQ ID NO:15) on apoptotoc cell death was examined with cancer cells of various trypes.
as §3

[2] = test system: PBMCs isolated from healthy donors; assay: Cell death, PI staining and FACS; type: cell-based, human; conditions: 90 min, n=34
Procedure: Peripheral blood mononuclear cells (PBMCs) were isolated from venous blood of patients with chronic lymphocytic leukemia (CLL) by Ficoll-Paque PLUS (GE Healthcare, Israel) density gradient centrifugation. After informed consent, venous blood (10 ml) was drawn from CLL patients satisfying diagnostic criteria for CLL or from normal adult donors. […]
PBMCs (2×10^6 cells/sample) from CLL patients and healthy donors were treated with various concentrations of the peptide Antp-LP4-trp for 90 minutes. Cells were then gently washed once with PBS and stained with propidium iodide (PI) by adding 2.5 μl (1 mg/ml) and immediately analyzed for cell death. The level of cell death, reflected by the percentage of PI-positive cells, was determined by a flow cytometry analysis. […]

[3] = test system: PBMCs isolated from CLL patients; type: cell-based, human
Procedure: Peripheral blood mononuclear cells (PBMCs) were isolated from venous blood of patients with chronic lymphocytic leukemia (CLL) by Ficoll-Paque PLUS (GE Healthcare, Israel) density gradient centrifugation. After informed consent, venous blood (10 ml) was drawn from CLL patients satisfying diagnostic criteria for CLL or from normal adult donors. Blood was collected into heparin tubes and diluted 1:1 with balance solution (composed of two stock solutions, A and B, in 1:9 ratio, respectively. Solution A contained: D-glucose 1%, CaCl2 5×10^−5M, MgCl2 9.8×10^−4M, KCl 5.4×10^−3M, Tris 0.145M, pH 7.6. Solution B contained NaCl 0.14M. The balance solution was prepared freshly every week. The diluted blood sample was subsequently carefully layered on Ficoll-Paque Plus (10 ml of diluted blood: 15 ml Ficoll) in 50 ml conical tubes. Tubes were centrifuged at 400×g (with minimal acceleration and deceleration) for 40 minutes at 18-20° C. The mononuclear cells fine layer was transferred to a new centrifuge tube. Cells were washed 3 times with balance solution and re-suspended in a culture medium appropriate to the application.
(§4) PBMCs (2×10^6 cells/sample) from CLL patients and healthy donors were treated with various concentrations of the peptide Antp-LP4-trp for 90 minutes. Cells were then gently washed once with PBS and stained with propidium iodide (PI) by adding 2.5 μl (1 mg/ml) and immediately analyzed for cell death. The level of cell death, reflected by the percentage of PI-positive cells, was determined by a flow cytometry analysis.
(§5) Preipheral blood mononuclear cells (PMBC) isolated from pateints having chronic lymphocytic leukemia (CLL) and MEC-1 cell lines (human chronic B-cell leukemia) were incubated for 90 min with Peptide N-ANTP (SEQ ID NO:73) at concentrations of 10-40 μM. Cell death was measured by PI staning and FACS analysis.
In ex vivo experiments, peripheral blood mononuclear cells (PBMCs) isolated from healthy individuals or CLL patients were incubated for 90 min with the indicated concentration of the ANTP-LP4-trp peptide. Cell death was assayed by PI staining and FACS analysis (healthy donors, n=34; CLL donors, n=39).

MEC-1 cell line = type: cell-based, human
Procedure: as §4, §5

PBMCs = type: cell-based, human
Procedure: as §1, §2, §3

[4] = type: physicochemical
Procedure: The peptides N-ANTP (C-terminus), ANTP-LP4-trp, TAT-LP4-trp and Tf-LP4-trp were synthesized by GL Biochem (Shanghai, China). The N-terminal peptide was water-soluble, while the other peptides were dissolved in DMSO. The concentration of DMSO in control and peptide-containing samples was up to 4%.

PC-3 = assay: Apoptosis induction by peptides, IC50; type: cell-based; conditions: PC-3, Prostate adenocarcinoma, Mut-P53, Androg↑
Procedure: as §1, §2, §3

Compound | IC50 (Panc-1) | IC50 (MOLT-4) | IC50 (T-Rex) | IC50 (U937) | IC50 (Mec-1) | IC50 (U87) | IC50 (SKOV-3) | IC50 (Hep-G2) | IC50 (A549) | IC50 (T3M4) | IC50 (JURKAT) | IC50 (HUH7) | IC50 (K562) | IC50 (A375) | IC50 (H358) | IC50 (MCF7) | IC50 (THP-1) | IC50 (MDA-MB-231) | IC50 (AsPC1) | IC50 (HeLa) | other results
CC[C@H](C)[C@H](NC(=O)[C@H](CCCCN)NC(=O)[C@@H](NC(=O)[C@H](CCC(N)=O)NC(=O)[C@H](CCCNC(=N)N)NC(=O)[C@@H](N)CCSC)[C@@H](C)CC)C(=O)N[C@@H](Cc1c[nH]c2ccccc12)C(=O)N[C@@H](Cc1ccccc1)C(=O)N[C@@H](CCC(N)=O)C(=O)N[C@@H](CC(N)=O)C(=O)N[C@@H](CCCNC(=N)N)C(=O)N[C@@H](CCCNC(=N)N)C(=O)N[C@@H](CCSC)C(=O)N[C@@H](CCCCN)C(=O)N[C@@H](Cc1c[nH]c2ccccc12)C(=O)N[C@@H](CCCCN)C(=O)N[C@@H](CCCCN)C(=O)N[C@@H](CO)C(=O)N[C@@H](Cc1c[nH]c2ccccc12)C(=O)N[C@H](C(=O)N[C@@H](Cc1c[nH]c2ccccc12)C(=O)N[C@@H](CCC(=O)O)C(=O)N[C@@H](CCCCN)C(=O)N[C@@H](CCCCN)C(=O)N[C@@H](CC(C)C)C(=O)N[C@@H](CCC(=O)O)C(=O)N[C@H](C(=O)N[C@@H](C)C(=O)N[C@H](C(=O)N[C@@H](CC(N)=O)C(=O)N[C@@H](CC(C)C)C(=O)N[C@@H](C)C(=O)N[C@@H](Cc1c[nH]c2ccccc12)C(=O)N[C@H](C(=O)N[C@@H](C)C(=O)NCC(=O)N[C@@H](CC(N)=O)C(=O)N[C@@H](CO)C(=O)N[C@@H](CC(N)=O)C(=O)N[C@@H](CCCCN)C(=O)N[C@@H](Cc1c[nH]c2ccccc12)C(=O)N[C@H](C(=O)N[C@@H](Cc1c[nH]c2ccccc12)C(=O)N[C@@H](CCCCN)C(=O)O)[C@@H](C)O)[C@@H](C)O)C(C)C)[C@@H](C)O)[C@@H](C)O [ANTP-LP4-trp] | 6400 ± 600 nM | 760 ± 200 nM | 6500 ± 900 nM | 280 ± 100 nM | 530 ± 100 nM | 1400 ± 500 nM | 1000 ± 200 nM | 1600 ± 600 nM | 1500 ± 200 nM | 500 ± 200 nM | 230 ± 100 nM | 600 ± 300 nM | 260 ± 100 nM | 6400 ± 600 nM | 1500 ± 500 nM | 1900 ± 40 nM | 300 ± 100 nM | 1600 ± 600 nM | 2700 ± 1700 nM | 900 ± 30 nM | cell-death induction, L- versus D-amino acid peptide [1]: irrespective to the D/L configuration; effect on PBMCs isolated from healthy donors [2]: marginal; IC50 [3]: 200 to 250 nM; correlation between relative amount of cancer cells (CD19+/CD5+) and peptide-induced cell death ([3]; 0.375 μM): tight correlation; cell death of CLL-derived PBMCs ([3]; 90 min, CLL donors, n=39): highly effective in inducing cancer cell death; IC50 (MEC-1 cell line): < 2000 nM
MAVPPTYADLGKSARDVFTKGYGFGLMRQIKIWFQNRRMKWKK [N-ANTP] | 6200 ± 600 nM | 1100 ± 300 nM | 5600 ± 900 nM | 580 ± 200 nM | 930 ± 100 nM | 1400 ± 600 nM | 2000 ± 800 nM | 3600 ± 1300 nM | 2700 ± 500 nM | 1300 ± 400 nM | 350 ± 500 nM | 1300 ± 300 nM | 600 ± 400 nM | 2800 ± 400 nM | 2700 ± 200 nM | 2500 ± 600 nM | 530 ± 30 nM | 1500 ± 300 nM | 6100 ± 100 nM | 2700 ± 800 nM | IC50 (PBMCs): 10100 ± 1200 nM; solubility [4]: water-soluble; IC50 [3]: 3000 to 4000 nM; IC50 (MEC-1 cell line): 3000 to 4000 nM; IC50 (PC-3): 400 ± 100 nM
